Test [1] concerns pERK1/2. Briefly: AMMP pERK1/2 assay, MCF-7 cells. The note with it: for EGF stimulated phosphorylation of ERK1/2: inhibitor (Afatinib 13 nM, Gefitinib 37 nM or Neratinib 92 nM) 2 hours prior to EGF 100 ng/ml 10 minutes.
Description: (§1) AMMP Assay Design: These studies were designed using AMMP® (Acoustic Membrane Microparticle Assay) as run on the ViBE® workstation (BioScale). Assays were constructed so that strepavidin coated magnetic microparticles were loaded with analyte-specific biotinylated antibody and the solution phase sandwich partner antibody was conjugated with fluorescein. The complex of bead-analyte and fluorescien-labeled antibody was detected by the anti-fluorescein antibody-coated acoustic membrane of the VIBE.
(§2) Assay Set-Up: Cell lysates were thawed on ice then centrifuged at 14,000 RPM. Forty microliters of diluted cell lysates were pipetted in to the appropriate well of each plate with forty microliters of sample diluent. Also to each well, a total of forty microliters of a mixture of 1.5×10^5 magnetic beads and 200 ng/ml of fluorescein labeled detector antibody were added. Separate wells were loaded with beads and lysates alone to serve as negative controls. The plates were loaded on the VIBE workstation (BioScale Inc., Lexington, Mass.) and incubated for 4 hours prior to analysis.
The subject of test [2] is pAKT1. Nature of the test: AMMP pAKT1 assay, MCF-7 cells.
Protocol: (§3) TPER was supplemented with phosphatase and protease inhibitors (ThermoFisher/Pierce) as described by the manufacturer. The cells were lysed by pipetting the TPER on the adhesion cell layer, or onto the cell pellet in the case of Jurkat cells. Cell lysates were collected into conical tubes, placed on ice, and vortexed every 5 minutes for a total of 20 minutes before aliquoting and freezing on dry ice. A standard BCA protein assay was used to determine total protein concentration of the lysates.
as §1
(§4) Assay Set-Up: Cell lysates were thawed on ice then centrifuged at 14,000 RPM. Forty microliters of diluted cell lysates were pipetted in to the appropriate well of each plate with forty microliters of sample diluent. Also to each well, a total of forty microliters of a mixture of 1.5×10^5 magnetic beads and 200 ng/ml of fluorescein labeled detector antibody were added. […]
In test [3] the test system is pMEK1. Briefly: AMMP pMEK1 assay, MCF-7 cells.
Description: as §1, §2
Test [4] deals with pp38. Briefly: AMMP pp38 assay, MCF-7 cells.
Protocol: as §3, §1, §4
In test [5] the test system is pHER3. Briefly: AMMP pHER3 assay, A431 cells. The note with it: for EGF stimulated phosphorylation of HER3: inhibitor (Afatinib 13 nM, Gefitinib 37 nM or Neratinib 92 nM) 2 hours prior to EGF 100 ng/ml 10 minutes.
Description: as §1, §2
For test [6], the system named is phosphorylated p38. Briefly: AMMP phospho-p38 assay, A431 cell lysates (Example 5). It counts as cell-based, human. Particulars: EGF-stimulated A431 cells compared to unstimulated A431 cells (FIG. 38). Here is the method: For the sample preparation from A431 cells, the following methods were used. Human epidermoid carcinoma cells A431 (American Type Culture Collection (ATCC), Manassas, Va.; ATCC Catalog No. CRL-1555) were grown to approximately 80% confluence in T75 flasks according to standard cell culture techniques. […] Negative control cells were incubated with serum free medium without stimulant, also for 10 minutes.
Additional scraping was required to release the cells from the plastic. The resulting cell suspension was incubated for approximately 15 minutes on ice with vortexing every five minutes for effective cell lysis. Phosphatase and protease inhibitors (HALT, Thermo Fisher (Pierce)) were included in the detergent cell treatment preparation. Cell lysates were aliquoted and snap frozen on dry ice, and then transferred to a −80° C. freezer until analysis. […]
Cell lysate samples were prepared for the assays by thawing them on ice then clarifying by centrifugation in a microcentrifuge at 14,000 RPM for 10 minutes. […] Negative controls containing the bead only with the samples (no fluoresceinated antibody) were run and the ViBE response was subtracted from the sample signal readings to determine the specific assay signal.

The subject of test [7] is pp38. Nature of the test: AMMP pp38 assay, A431 cells.
Protocol: as §3, §1, §4
Test [8] deals with pERK1/2. Nature of the test: AMMP pERK1/2 assay, A431 cells.
Description: as §1, §2
In test [9] the test system is pJNK. Nature of the test: AMMP pJNK assay, A431 cells.
Protocol: as §3, §1, §2
For test [10], the system named is pMEK1. Nature of the test: AMMP pMEK1 assay, A431 cells.
Description: as §1, §2
In test [11] the test system is pHER3. Briefly: AMMP pHER3 assay, MCF-7 cells.
Protocol: as §3, §1, §2
Test [12] deals with pJNK. Nature of the test: AMMP pJNK assay, MCF-7 cells. The test is classed as cell-based, human. The note with it: EGF 100 ng/ml for 10 minutes vs no treatment.
Protocol: as §3, §1, §4
Test [13] has as its system pAKT1. Nature of the test: AMMP pAKT1 assay, A431 cells. The note with it: inhibitor (Neratinib 92 nM) 2 hours prior to EGF 100 ng/ml 10 minutes.
Protocol: as §3, §1, §4
Setting [14] is: EGF 100 ng/ml for 10 minutes vs no treatment.
The mark [15] stands for this setting: inhibitor (Neratinib 92 nM) 2 hours prior to EGF 100 ng/ml 10 minutes.
The mark [16] stands for this setting: inhibitor (Afatinib 13 nM, Gefitinib 37 nM or Neratinib 92 nM) 2 hours prior to EGF 100 ng/ml 10 minutes, listed as neratinib.

“Also recorded” adds a separate entry of the source.

We go through three molecules from patent US20150057180A1, “Methods and Kits for Analyzing Biomarkers in a Signal Transduction Pathway” (BioScale, Inc., priority 2012, published 2015).

`COc1cc2ncnc(Nc3ccc(F)c(Cl)c3)c2cc1OCCCN1CCOCC1` [gefitinib, Gefitinib]: in test [1], the “EGF stimulated phosphorylation of ERK1/2” value is given as “inhibited”.

On to epidermal growth factor [EGF], for which the “phosphorylation of AKT1 on EGF stimulation” value in test [2] (setting [14]) is “small amount of AKT1 phosphorylation”. For the same molecule, the “phosphorylation of ERK1/2 on EGF stimulation” value is recorded as “detected phosphorylation of ERK1/2; also recorded: detected to a lesser degree; also recorded: resulted in phosphorylation” in [1] (setting [14]) and “predominated the signaling pathway; also recorded: easily detected; also recorded: led to phosphorylation” in test [8] (setting [14]). Moreover, the “phosphorylation of MEK1 on EGF stimulation” value is “modest phosphorylation of MEK1; also recorded: resulted in phosphorylation” in test [3] (setting [14]) and “Strong phosphorylation of MEK1; also recorded: led to phosphorylation” in [10] (setting [14]). Further, the results for the “phosphorylation of p38 on EGF stimulation” value in [4] (setting [14]) and in test [7] (setting [14]) were “moderate phosphorylation of p38” and “led to phosphorylation”, respectively. Besides, the “phosphorylation of HER3 on EGF stimulation” value in test [5] (setting [14]) is recorded as “increased with EGF stimulation; also recorded: high even in non-treated A431 cells”; in [11] (setting [14]), “little phosphorylation was observed; also recorded: resulted in phosphorylation”. Besides, the “amount of phospho-p38” value in test [6] is “dramatic increase”. For the same molecule, the “phosphorylation of JNK on EGF stimulation” value in test [9] (setting [14]) and in test [12] was “no change in JNK; also recorded: No phosphorylation of JNK” in each case.

As for `CCOc1cc2ncc(C#N)c(Nc3ccc(OCc4ccccn4)c(Cl)c3)c2cc1NC(=O)/C=C/CN(C)C` [Neratinib], the results for the “EGF stimulated phosphorylation of AKT1” value in test [2] (setting [15]) and in [13] were “slight loss in phosphorylation” and “largely unaffected”, respectively. Further, the “EGF stimulated phosphorylation of ERK1/2” value in test [1] is reported as “inhibitory effects”; in test [8] (setting [16]), “no such effect; also recorded: much less than expected”. Besides, the “EGF stimulated phosphorylation of MEK1” value in test [3] (setting [15]) is reported as “inhibitory effects; also recorded: partially inhibited”; in [10] (setting [16]) it was “no such effect; also recorded: much less than expected”. Besides, the “EGF stimulated phosphorylation of p38” value is listed as “slight loss in phosphorylation” in test [4] (setting [15]) and “largely unaffected” in test [7] (inhibitor (Afatinib 13 nM, Gefitinib 37 nM or Neratinib 92 nM) 2 hours prior to EGF 100 ng/ml 10 minutes). The “EGF stimulated phosphorylation of HER3” value is listed as “largely inhibit” in [5], “highly effective” in [5] (listed as neratinib) and “only partially inhibited” in test [11] (setting [15]). Moreover, the “EGF stimulated phosphorylation of JNK” value in test [9] (setting [15]) is reported as “largely unaffected”.
